Assay results reported in PMC6631223, “Chain-Branched Polyhydroxylated Octahydro-1H-Indoles as Potential Leads against Lysosomal Storage Diseases” (Pharmaceuticals, 2019).

Tests used:
Format in all cases: biochemical
α-Glucosidase (yeast) = molecular target: T1, α-Glucosidase (yeast) (Saccharomyces cerevisiae, UniProt P53341); experiment: Glycosidase inhibition: α-glucosidase (yeast)
T1 construct: purchased Sigma-Aldrich Co
Source text: (§1) The enzymes α-glucosidase (from yeast, rice), β-glucosidase (from almonds, bovine liver), α-galactosidase (from coffee beans), β-galactosidase (from bovine liver), α-mannosidase (from jack beans), β-mannosidase (from snails), α-L-fucosidase (from bovine kidney), α-L-rhamnosidase (from Penicillium decumbens), β-glucuronidases (from Escherichia coli), α,α-trehalase (from porcine kidney), amyloglucosidase (from Aspergillus niger), p-nitrophenyl glycosides, and various disaccharides were purchased from Sigma-Aldrich Co. Brush border membranes were prepared from the rat small intestine according to the method of Kessler et al., and were assayed at pH 6.8 for rat intestinal maltase using maltose. For rat intestinal glucosidases and porcine kidney trehalase activities, the reaction mixture (0.2 mL) contained 25 mM substrate and the appropriate amount of enzyme, and the incubations were performed for 10 min at 37 °C. The reaction was stopped by heating at 100 °C for 3 min. After centrifugation (600 g; 10 min), 0.035 mL of the resulting reaction mixture were added to 2.1 mL of the Glucose CII-test Wako (Wako Pure Chemical Ind., Osaka, Japan). The absorbance at 505 nm was measured to determine the amount of the released D-glucose. Other glycosidase activities were determined using an appropriate p-nitrophenyl glycoside as substrate at the optimum pH of each enzyme. The reaction mixture (0.2 mL) contained 2 mM of the substrate and the appropriate amount of enzyme. The reaction was stopped by adding 0.4 mL of 400 mM Na2CO3. The released p-nitrophenol was measured spectrometrically at 400 nm.

α-Glucosidase (rice) = molecular target: T2, α-Glucosidase (rice) (Oryza sativa subsp. japonica, UniProt Q653V7); experiment: Glycosidase inhibition: α-glucosidase (rice)
T2 construct: purchased Sigma-Aldrich Co
Source text: as §1

Rat intestinal maltase = experiment: Glycosidase inhibition: rat intestinal maltase; settings: maltose, pH 6.8
Source text: as §1

β-Glucosidase (almond) = experiment: Glycosidase inhibition: β-glucosidase (almond)
Source text: as §1

[1] = molecular target: T3, α-Galactosidase (coffee beans) (Coffea arabica, UniProt Q42656); experiment: Glycosidase inhibition: α-galactosidase (coffee beans); settings: α-galactosidase, coffee beans
T3 construct: purchased Sigma-Aldrich Co
Source text: as §1

[2] = molecular target: T4, Lactase (β-Galactosidase) (Rattus norvegicus, UniProt Q02401); experiment: Glycosidase inhibition: lactase; settings: lactase
T4 construct: Brush border membranes were prepared from the rat small intestine; from tissue; host or cells: rat small intestine brush border membranes (inferred)
T4 sequence (Q02401 868-1928): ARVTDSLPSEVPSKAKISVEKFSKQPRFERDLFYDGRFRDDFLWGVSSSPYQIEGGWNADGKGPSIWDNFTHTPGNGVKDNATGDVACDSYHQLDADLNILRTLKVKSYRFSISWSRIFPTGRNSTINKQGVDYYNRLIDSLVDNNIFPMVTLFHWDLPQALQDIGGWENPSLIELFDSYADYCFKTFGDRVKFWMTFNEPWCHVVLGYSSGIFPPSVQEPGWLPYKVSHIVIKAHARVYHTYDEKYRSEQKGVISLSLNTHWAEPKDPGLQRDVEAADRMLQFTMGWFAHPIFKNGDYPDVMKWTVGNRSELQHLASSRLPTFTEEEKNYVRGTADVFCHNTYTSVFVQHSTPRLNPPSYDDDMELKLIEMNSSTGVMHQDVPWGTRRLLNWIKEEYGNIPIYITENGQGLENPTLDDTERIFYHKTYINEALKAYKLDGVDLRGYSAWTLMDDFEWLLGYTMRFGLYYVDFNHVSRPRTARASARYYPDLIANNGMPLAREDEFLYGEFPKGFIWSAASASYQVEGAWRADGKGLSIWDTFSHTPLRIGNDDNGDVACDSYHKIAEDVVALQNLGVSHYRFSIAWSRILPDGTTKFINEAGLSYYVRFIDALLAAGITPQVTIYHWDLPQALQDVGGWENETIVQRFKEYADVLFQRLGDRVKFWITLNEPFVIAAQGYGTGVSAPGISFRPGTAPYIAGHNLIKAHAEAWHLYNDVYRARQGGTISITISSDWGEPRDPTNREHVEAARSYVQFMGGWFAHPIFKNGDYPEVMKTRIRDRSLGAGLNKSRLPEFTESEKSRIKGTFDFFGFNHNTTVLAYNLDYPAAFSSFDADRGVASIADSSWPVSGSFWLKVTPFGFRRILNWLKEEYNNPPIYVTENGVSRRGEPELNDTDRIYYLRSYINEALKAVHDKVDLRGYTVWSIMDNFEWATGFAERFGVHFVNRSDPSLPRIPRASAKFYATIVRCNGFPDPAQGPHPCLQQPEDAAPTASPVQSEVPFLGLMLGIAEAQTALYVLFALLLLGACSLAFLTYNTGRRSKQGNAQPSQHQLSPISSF
Source text: as §1

β-Mannosidase (snail) = experiment: Glycosidase inhibition: β-mannosidase (snail)
Source text: as §1

[3] = molecular target: T5, α-L-Fucosidase (bovine kidney) (Bos taurus, UniProt Q2KIM0); experiment: Glycosidase inhibition: α-L-fucosidase (bovine kidney); settings: α-L-fucosidase, bovine kidney
T5 construct: purchased Sigma-Aldrich Co; host or cells: bovine kidney
T5 sequence (Q2KIM0 23-468): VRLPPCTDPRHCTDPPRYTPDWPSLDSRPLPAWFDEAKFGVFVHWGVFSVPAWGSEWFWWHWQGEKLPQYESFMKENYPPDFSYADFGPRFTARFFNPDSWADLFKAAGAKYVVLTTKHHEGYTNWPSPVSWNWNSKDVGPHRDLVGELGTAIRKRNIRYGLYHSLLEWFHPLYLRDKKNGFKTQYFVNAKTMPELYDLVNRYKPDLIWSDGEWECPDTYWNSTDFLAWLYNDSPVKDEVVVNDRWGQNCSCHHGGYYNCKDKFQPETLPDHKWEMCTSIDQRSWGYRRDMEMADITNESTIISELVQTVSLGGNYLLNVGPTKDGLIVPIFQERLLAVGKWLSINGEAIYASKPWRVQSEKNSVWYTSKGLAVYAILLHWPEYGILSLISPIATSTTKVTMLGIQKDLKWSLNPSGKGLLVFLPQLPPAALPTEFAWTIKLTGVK
Source text: as §1

β-Glucronidase (E.coli) = molecular target: T6, β-Glucronidase (E.coli) (Escherichia coli, UniProt P05804); experiment: Glycosidase inhibition: β-glucuronidase (E. coli)
T6 construct: purchased Sigma-Aldrich Co
Source text: as §1

Amyloglucosidase = molecular target: T7, Amyloglucosidase (Aspergillus niger, UniProt P69328); experiment: Glycosidase inhibition: amyloglucosidase (Aspergillus niger)
T7 construct: purchased Sigma-Aldrich Co
Source text: as §1

T1 sequence (P53341 whole entry): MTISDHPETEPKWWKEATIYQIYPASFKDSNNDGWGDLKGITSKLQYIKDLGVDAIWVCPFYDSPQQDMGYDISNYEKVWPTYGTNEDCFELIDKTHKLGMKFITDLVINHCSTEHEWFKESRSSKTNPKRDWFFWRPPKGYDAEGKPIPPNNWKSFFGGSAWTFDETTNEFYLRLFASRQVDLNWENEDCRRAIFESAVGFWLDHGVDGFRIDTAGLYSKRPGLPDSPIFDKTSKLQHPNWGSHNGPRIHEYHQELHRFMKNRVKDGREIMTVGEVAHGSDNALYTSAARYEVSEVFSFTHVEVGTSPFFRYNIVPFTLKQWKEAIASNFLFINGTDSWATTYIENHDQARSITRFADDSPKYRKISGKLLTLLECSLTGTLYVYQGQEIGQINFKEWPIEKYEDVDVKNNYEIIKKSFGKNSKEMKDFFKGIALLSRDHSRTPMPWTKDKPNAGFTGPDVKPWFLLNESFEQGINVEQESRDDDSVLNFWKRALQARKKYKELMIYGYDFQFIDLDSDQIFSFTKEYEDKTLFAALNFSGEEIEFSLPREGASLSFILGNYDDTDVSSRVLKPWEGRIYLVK
T6 sequence (P05804 whole entry): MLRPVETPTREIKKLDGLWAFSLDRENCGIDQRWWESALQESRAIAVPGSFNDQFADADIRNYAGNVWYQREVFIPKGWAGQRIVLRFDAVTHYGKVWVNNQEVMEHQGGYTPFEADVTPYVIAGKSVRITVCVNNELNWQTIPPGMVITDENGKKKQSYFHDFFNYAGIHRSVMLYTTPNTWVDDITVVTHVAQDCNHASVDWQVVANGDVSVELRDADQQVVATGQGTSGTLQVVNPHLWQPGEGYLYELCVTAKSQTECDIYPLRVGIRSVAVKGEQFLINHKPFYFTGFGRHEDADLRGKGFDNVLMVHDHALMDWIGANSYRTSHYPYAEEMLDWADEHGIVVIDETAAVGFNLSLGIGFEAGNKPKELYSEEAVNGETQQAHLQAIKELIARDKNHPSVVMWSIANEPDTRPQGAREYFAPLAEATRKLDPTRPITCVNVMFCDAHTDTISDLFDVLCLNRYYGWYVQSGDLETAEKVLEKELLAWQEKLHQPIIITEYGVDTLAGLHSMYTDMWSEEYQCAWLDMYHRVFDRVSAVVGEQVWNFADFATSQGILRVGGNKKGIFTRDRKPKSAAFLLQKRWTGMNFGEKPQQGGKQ
T3 sequence (Q42656 16-378): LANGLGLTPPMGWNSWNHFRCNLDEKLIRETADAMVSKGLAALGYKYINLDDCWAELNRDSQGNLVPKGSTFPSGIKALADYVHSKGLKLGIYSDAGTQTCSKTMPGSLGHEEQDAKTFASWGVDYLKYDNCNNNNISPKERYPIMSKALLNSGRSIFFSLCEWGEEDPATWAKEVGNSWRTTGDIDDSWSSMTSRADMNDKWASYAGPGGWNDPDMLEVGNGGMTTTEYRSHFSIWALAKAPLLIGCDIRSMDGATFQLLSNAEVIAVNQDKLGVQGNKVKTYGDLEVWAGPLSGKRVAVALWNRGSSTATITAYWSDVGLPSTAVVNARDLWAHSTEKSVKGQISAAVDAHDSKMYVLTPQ
T7 sequence (P69328 25-640): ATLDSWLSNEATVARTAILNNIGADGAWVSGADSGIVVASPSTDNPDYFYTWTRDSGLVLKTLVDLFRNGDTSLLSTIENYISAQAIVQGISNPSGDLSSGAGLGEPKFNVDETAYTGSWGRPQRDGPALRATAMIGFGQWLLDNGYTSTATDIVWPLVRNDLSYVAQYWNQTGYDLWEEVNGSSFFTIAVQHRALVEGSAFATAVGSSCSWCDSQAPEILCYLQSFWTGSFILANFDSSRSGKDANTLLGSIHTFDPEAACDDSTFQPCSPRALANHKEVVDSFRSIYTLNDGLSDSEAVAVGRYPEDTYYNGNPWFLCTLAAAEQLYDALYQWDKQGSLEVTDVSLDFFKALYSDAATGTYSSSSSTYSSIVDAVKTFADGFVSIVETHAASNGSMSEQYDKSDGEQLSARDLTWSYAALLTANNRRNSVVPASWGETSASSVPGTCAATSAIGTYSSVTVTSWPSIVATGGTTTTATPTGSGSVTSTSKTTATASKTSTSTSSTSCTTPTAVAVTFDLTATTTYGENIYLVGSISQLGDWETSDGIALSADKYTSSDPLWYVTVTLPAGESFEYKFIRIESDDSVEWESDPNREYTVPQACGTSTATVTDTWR
T2 sequence (Q653V7 34-885): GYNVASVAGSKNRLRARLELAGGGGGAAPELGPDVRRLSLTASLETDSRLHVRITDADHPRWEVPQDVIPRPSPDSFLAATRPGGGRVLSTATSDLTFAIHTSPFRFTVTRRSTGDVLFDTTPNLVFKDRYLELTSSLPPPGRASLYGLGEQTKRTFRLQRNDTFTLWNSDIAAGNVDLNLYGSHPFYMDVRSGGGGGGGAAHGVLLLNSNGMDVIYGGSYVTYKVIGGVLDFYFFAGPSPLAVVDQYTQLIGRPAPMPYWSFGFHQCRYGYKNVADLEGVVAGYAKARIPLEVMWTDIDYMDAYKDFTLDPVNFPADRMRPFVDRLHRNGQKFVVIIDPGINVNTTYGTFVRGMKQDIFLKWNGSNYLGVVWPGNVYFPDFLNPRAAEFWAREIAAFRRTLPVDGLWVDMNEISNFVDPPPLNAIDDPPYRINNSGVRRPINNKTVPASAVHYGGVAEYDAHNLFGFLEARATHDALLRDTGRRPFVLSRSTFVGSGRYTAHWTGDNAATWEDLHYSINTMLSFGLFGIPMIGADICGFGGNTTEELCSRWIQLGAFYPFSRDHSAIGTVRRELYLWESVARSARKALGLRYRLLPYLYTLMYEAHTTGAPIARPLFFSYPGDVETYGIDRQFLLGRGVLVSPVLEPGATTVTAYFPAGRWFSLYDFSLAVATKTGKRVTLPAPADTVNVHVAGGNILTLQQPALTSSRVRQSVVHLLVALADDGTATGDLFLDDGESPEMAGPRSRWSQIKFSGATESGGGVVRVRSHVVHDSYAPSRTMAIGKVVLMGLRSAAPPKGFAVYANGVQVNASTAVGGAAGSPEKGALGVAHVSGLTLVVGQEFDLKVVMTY

OCCN1C[C@H](O)[C@@H](O)[C@H](O)[C@H]1CO [Miglitol, miglitol, reference compound]
IC50 (α-Glucosidase (yeast)): 70 µM | IC50 (α-Glucosidase (rice)): 0.17 µM | IC50 (Rat intestinal maltase): > 1000 µM | IC50 (β-Glucosidase (almond)): > 1000 µM | IC50 [1]: > 1000 µM | IC50 [2]: > 1000 µM | IC50 (β-Mannosidase (snail)): > 1000 µM | IC50 [3]: > 1000 µM | IC50 (β-Glucronidase (E.coli)): > 1000 µM | IC50 (Amyloglucosidase): > 1000 µM
